{"source": "paper PMC9901178", "about": "(bioRxiv, 2023)", "key": {"[1]": {"test_system": "HEK293/GC-A^+/AT1^+ cells", "experiment": "Intracellular cGMP generation in HEK293/GC-A+/AT1+ cells", "assay_type": "cell-based, human", "settings": "ANP 10^−8 M, ANGII 10^−8 M"}, "PKC": {"test_system": "PKC", "experiment": "PKC activity by western blot of phosphorylated pan-PKC substrates", "assay_type": "cell-based, human", "settings": "Go6983 5 μM, HEK293/GC-A^+/AT1^+ cells"}}, "data": [{"smiles": "COc1ccc2c(c1)c(C1=C(c3c[nH]c4ccccc34)C(=O)NC1=O)cn2CCCN(C)C", "note": "[Go6983]", "values": [{"measurement": "Rescue of the suppression effect of ANGII on ANP-induced cGMP", "setting": "[1]; Go6983 5 μM", "result": "significantly rescued"}, {"measurement": "PKC activity, phosphorylated status of pan-PKC substrates", "setting": "PKC", "result": "effectively inhibited PKC activity"}]}, {"smiles": "CCCCC(=O)N(Cc1ccc(-c2ccccc2-c2nnn[nH]2)cc1)[C@H](C(=O)O)C(C)C", "note": "[valsartan]", "values": [{"measurement": "Rescue of the suppression effect of ANGII on ANP-induced cGMP", "setting": "[1]; valsartan 1 μM", "result": "significantly rescued"}]}]}
